Counter-ions that a name gives are not always drawn. Like-named read-outs stand apart in the source and are kept apart here. Starred links: 1 amine or outer side, 2 acyl side, 3 side chain; linkers in the order of their positions; H or OH if unused. Positions of bridges follow the written chain, without caps; N, C: chain ends. Non-standard residues stand in square brackets, D forms with d. Residues, ends and D or L forms follow the SMILES beside them. *: point of attachment. X1 = CCCCCCCCCCCCCC(=S)N(C)CCCC[C@H](N[*:1])C(=O)[*:2]; Tfa = O=C(C(F)(F)F)*
Experiments:
[1] = target: T1, Sirt6 (Homo sapiens, UniProt Q8N6T7); assay: Isomer specific inhibition by thioxo peptides, HPLC; assay type: biochemical; conditions: substrate 2a
T1 construct: His-tag; made in house; host or cells: E. coli BL21 DE3
T1 sequence (Q8N6T7 whole entry): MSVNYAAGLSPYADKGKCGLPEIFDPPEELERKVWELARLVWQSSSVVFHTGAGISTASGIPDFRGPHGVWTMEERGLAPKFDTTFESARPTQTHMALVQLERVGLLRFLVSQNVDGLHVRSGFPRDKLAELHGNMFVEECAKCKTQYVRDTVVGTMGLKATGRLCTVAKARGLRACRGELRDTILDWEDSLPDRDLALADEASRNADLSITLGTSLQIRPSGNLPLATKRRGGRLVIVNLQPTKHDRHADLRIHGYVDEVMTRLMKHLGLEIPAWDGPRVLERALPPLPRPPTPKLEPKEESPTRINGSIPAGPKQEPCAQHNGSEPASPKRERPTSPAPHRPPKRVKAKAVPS
Experimental: After 30 min incubation at 20 °C reaction was stopped using 10% TFA solution. Inhibitor solutions were irradiated at 254 nm for 5 min. Separated isomers were applied in concentrations from 1 to 10 μM. The influence of cis content on sirtuin inhibition using fluorescence spectrometer was determined with 500 μM NAD^+, 5 μM 3, 0.1 μM Sirt2 and 0.1 μM 9. Reactions were done at 20 °C with 9 in GS and PSS (after 5 min irradiation at 254 nm). 9 in PSS was applied immediately after irradiation (transfer time ~5 s) and started directly by adding sirtuin. Reactions were measured within 1 min to avoid re-isomerization.
Supplementary Figure S36. Determination of IC50 value of 8 for Sirt6 in GS (?) and PSS (π). Data were fitted with U(%) = Umin(%) + (Umax(%) – Umin(%))/(1+10^(x-logIC50)) with U(%) percental turmover of substrate 2a; Umin(%) lowest turnover of substrate; Umax(%) maximal turnover of substrate (n=3).
Supplementary Figure S37. Inhibition of Sirt6 by 8 (?) and 9 (π).Data were fitted with U(%) = Umin(%) + (Umax(%) – Umin(%))/(1+10^(x-logIC50)) with U(%) percental turmover of substrate; Umin(%) lowest turnover of substrate 2a; Umax(%) maximal turnover of substrate (n=3).
Supplementary Figure S38. Determination of IC50 of 9 for Sirt6 with 72.4 % cis- (π) and 70.3 % (?) trans-content. Measurements were done with 10 µM peptide substrate (big figure) or 30 µM (small figure). Data were fitted with U(%) = Umin(%) + (Umax(%) – Umin(%))/(1+10^(x-logIC50)) with U(%) percental turmover of substrate 2a; Umin(%) lowest turnover of substrate; Umax(%) maximal turnover of substrate (n=3).

[2] = system: Sirt6; set-up: method as in PMID 25004411; conditions: cited from earlier work; for inhibition of enzymatic activity: 200 μM concentration
[3] = target: T1, Sirt6; assay: Ki determination with substrate 3, 96-well MTP fluorescence reader; assay type: biochemical; conditions: for type of inhibition with respect to the peptide substrate: Sirt6, substrate 3
Experimental: All measurements were done in duplicates.
(§1) Supplementary Figure S13. […] Data are presented as mean ± s.d. (n=2) and lines represent the Michaelis-Menten-plot (left) and secondary plots (right). The apparent KM or Vmax^app-1 values from v/[S] characteristics were plotted against the corresponding inhibitor concentration.
as §1, with “S14. […] The reactions were performed with 0.5 µM Sirt6 and either 500 µM NAD^+ and varying concentrations of 3 (2-100 µM).” for “S13.”, “apparent” for “apparent KM or”
Supplementary Figure S15. Kinetic characteristics for sirtuin inhibitor 8. The reactions were performed with 0.01 µM Sirt2 /0.1 µM Sirt3 /0.5 µM Sirt6 and 500 µM NAD^+ and varying concentrations of 3 (0.07-100 µM). […] Data are presented as mean ± s.d. (n=2) and lines represent the Michaelis-Menten-plot (left) and secondary plots (right). The apparent Vmax^app-1 values from v/[S] characteristics were plotted against the corresponding inhibitor concentration.

[4] = target: T2, Sirt2 (Homo sapiens, UniProt Q8IXJ6); assay: as above; assay type: biochemical
T2 construct: made in house
T2 sequence (Q8IXJ6 1-389): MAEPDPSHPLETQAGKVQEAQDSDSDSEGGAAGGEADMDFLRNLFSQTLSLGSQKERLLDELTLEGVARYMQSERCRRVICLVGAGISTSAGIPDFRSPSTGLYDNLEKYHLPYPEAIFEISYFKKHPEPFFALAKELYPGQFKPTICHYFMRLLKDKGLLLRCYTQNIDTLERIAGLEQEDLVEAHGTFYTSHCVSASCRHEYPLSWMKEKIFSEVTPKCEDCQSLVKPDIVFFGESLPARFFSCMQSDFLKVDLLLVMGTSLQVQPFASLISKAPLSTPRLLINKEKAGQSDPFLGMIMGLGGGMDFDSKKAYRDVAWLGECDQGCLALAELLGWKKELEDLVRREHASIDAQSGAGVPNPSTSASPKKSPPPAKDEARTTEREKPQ
Experimental: The microtiter plate fluorescence measurements were performed on a Tecan Infinite M200 microplate reader (Maennedorf, Switzerland) at λEx = 320 nm and λEm = 408 nm (lag time 9 μs, integration time […], gain 160, 170 or 182). The reactions (total volume 100 μl) were measured in black low-binding 96-well microtiter plates (NUNC). Assay-buffer, 500 μM NAD^+ and 0.07–200 μM peptide substrate were pre-incubated at 37 °C for 5 min. The reaction was started by adding human sirtuin (0.01–0.5 μM). The signals were converted into product concentration via calibration lines and the resulting data were evaluated as described above (single fluorescence measurement). The determination for the kinetic constants of NAD^+ was performed in the same way, except that the peptide concentration was fixed (5, 25 or 200 μM) and the NAD^+ concentration was varied (10–1500 μM). All measurements were done in duplicates. The reaction mixture for the calibration lines was prepared as described for the single fluorescence measurements. […] The resulting plots were analyzed by a competitive inhibition and non-competitive inhibition model using the program Sigma Plot 8. The linear regression of the apparent KM-values against the corresponding inhibitor concentration yielded the inhibitor constant Ki for competitive inhibition. The Ki for non-competitive inhibition was determined by linear regression of 1/apparent Vmax against the corresponding inhibitor concentration. The negative Ki value can be determined as intersection with the X-axis from these plots.
Supplementary Figure S15. Kinetic characteristics for sirtuin inhibitor 8. The reactions were performed with 0.01 µM Sirt2 /0.1 µM Sirt3 /0.5 µM Sirt6 and 500 µM NAD^+ and varying concentrations of 3 (0.07-100 µM). […] The negative Ki value can be determined as intersection with the X-axis from the Vmax^app-1/I plot.
Supplementary Figure S16. […] The negative Ki value can be determined as intersection with the X-axis from the Vmax^app-1/I plot.
Supplementary Figure S17. […] The negative Ki value can be determined as intersection with the X-axis from the Vmax^app-1/I plot.

[5] = target: T3, Sirt1 (Homo sapiens, UniProt Q96EB6); assay: HPLC based activity assay, influence of resveratrol on Sirt1 mediated deacylation of 3; assay type: biochemical; conditions: 0-100 µM resveratrol; Sirt1 0.5 µM, 3 20 µM, NAD+ 500 µM, 60 minutes at 37°C
T3 construct: made in house
T3 sequence (Q96EB6 1-747): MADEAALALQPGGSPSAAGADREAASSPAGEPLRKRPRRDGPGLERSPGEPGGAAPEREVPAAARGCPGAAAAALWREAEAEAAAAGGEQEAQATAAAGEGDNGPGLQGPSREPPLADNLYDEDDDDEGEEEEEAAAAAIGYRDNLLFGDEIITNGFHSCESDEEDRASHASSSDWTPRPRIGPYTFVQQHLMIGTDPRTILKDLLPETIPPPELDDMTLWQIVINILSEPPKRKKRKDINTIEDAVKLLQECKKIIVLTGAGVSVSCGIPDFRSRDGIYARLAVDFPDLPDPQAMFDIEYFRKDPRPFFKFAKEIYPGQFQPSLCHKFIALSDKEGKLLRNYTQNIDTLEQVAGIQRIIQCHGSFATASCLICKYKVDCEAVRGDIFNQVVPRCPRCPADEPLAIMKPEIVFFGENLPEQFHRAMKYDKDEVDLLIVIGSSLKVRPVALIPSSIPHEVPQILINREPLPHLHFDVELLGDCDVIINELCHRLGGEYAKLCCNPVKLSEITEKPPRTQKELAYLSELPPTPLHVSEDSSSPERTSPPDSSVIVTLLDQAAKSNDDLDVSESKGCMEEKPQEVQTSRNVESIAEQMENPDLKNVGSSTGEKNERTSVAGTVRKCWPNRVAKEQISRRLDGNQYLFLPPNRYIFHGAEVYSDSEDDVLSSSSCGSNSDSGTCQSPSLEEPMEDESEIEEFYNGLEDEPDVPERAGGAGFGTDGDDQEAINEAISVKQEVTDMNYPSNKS
Experimental: For the determination of kinetic constants for all sirtuin mediated reactions solutions containing 20 mM TRIS/HCl pH 7.8, 150 mM NaCl, 5 mM MgCl2 (assay-buffer), 500 μM NAD^+ and varying substrate concentrations (0.5–100 μM) were used. Deacylation was started by adding human sirtuin to reach a final concentration of 0.01–0.5 μM. Enzyme-catalyzed reaction was stopped using TFA (1% final concentration) after 1 min to 180 min of incubation at 37 °C depending on substrate reactivity. The cleavage rate of the different TNFα peptide derivatives was analyzed using analytical reversed phase HPLC. 40 to 80 μl of compounds or reaction solutions were injected and separated using a linear gradient from 5% to 95% solvent B within 6min. The product and substrate peaks were quantified using absorbance at 220 nm or 365 nm (absorption of 3-Nitrotyrosyl moiety). The peak areas were integrated and converted to initial velocity rates calculated from the ratio of product area to total peak area. Linear regression of conversions plotted against time yielded reaction rates in μM/min (relative conversion below 20% of substrate). […]
Supplementary Figure S4. […] Reaction was stopped using TFA (1% final concentration) and the consumption of 3 was analyzed using HPLC. […]

Question: With `CCCCCCCCCCCCCC(=S)N(C)CCCC[C@H](NC(=O)[C@H](CCCCN)NC(=O)[C@@H]1CCCN1C(=O)[C@H](CC(C)C)NC(=O)[C@H](C)NC(=O)[C@H](CCC(=O)O)NC(C)=O)C(=O)N[C@H](C(=O)NCC(=O)NCC(N)=O)[C@@H](C)O` [compound 9] (Ac-EALPK[X1]TGG-NH2) as the compound, how does the IC50 ([1]; inhibitor with 29.7% cis isomer (HPLC-separated)) read?
Answer: 1.7 ± 0.5 µM

Question: And the IC50 ([1]; inhibitor with 72.4% cis isomer (HPLC-separated))?
Answer: 0.6 ± 0.1 µM

Question: What does the source list for `O=c1c(O)c(-c2ccc(O)c(O)c2)oc2cc(O)cc(O)c12` [Quercetin]?
Answer: inhibition of enzymatic activity [2]: 52%; type of inhibition with respect to the peptide substrate [3]: non-competitive

Question: For `NC(=O)C1CCCc2c1[nH]c1ccc(Cl)cc21` (centres unmarked) [Ex-527], which “inhibition of enzymatic activity” value [2] is on record?
Answer: 56%

Question: What about the Ki ([3]; Sirt6 0.5 µM, varying substrate 3, 500 µM NAD+ (saturating)) of the same compound?
Answer: 100 ± 11 µM

Question: What about the “type of inhibition with respect to the peptide substrate” value [3] of the same compound?
Answer: non-competitive

Question: Which Ki ([4]; Sirt2 0.01 µM, varying substrate 3, 500 µM NAD+, read-out: Ki (3)) does the source give for `CC(C)[C@@H]1NC(=O)[C@H](Cc2c[nH]cn2)NC(=O)[C@H](Cc2ccc(O)cc2)NC(=O)[C@H]([C@@H](C)O)NC(=O)[C@H](Cc2c[nH]cn2)NC(=O)[C@H](Cc2ccc(O)cc2)NC(=O)CSC[C@@H](C(N)=O)NC(=O)[C@H](Cc2ccc(O)cc2)NC(=O)[C@H](Cc2ccc(O)cc2)NC(=O)[C@H](CC(N)=O)NC(=O)[C@H]([C@@H](C)O)NC(=O)[C@H](CCCNC(=N)N)NC(=O)[C@H](CCCNC(=N)N)NC(=O)[C@H](CCCCNC(=O)C(F)(F)F)NC1=O` [S2iL5] ({CH2CO}-YHTYHVK(Tfa)RRTNYYC-NH2; thioether N-14) here?
Answer: 0.6 ± 0.2 µM

Question: And the Ki ([4]; Sirt2, substrate 3, read-out: Ki-value)?
Answer: 0.56 µM

Question: Which “influence on Sirt1 mediated deacylation of 3” value [5] does the source give for `Oc1ccc(/C=C/c2cc(O)cc(O)c2)cc1` [resveratrol] here?
Answer: no significant influence
